# Assay results as given in patent publication US11472808B2, “Substituted pyrrolo[1,2-c]pyrimidines as hepatitis B antiviral agents” (Enanta Pharmaceuticals, Inc., priority 2019, dated 2022).
# System: HBV
# Test: HepAD38 anti-HBV assay: reduction of viral product accumulation (virion DNA qPCR, HBsAg/HBeAg ELISA)
# Format: cell-based
# Settings: Hepatitis B virus, 120 h; HepAD38 cells; concentration reducing viral product accumulation by 50% relative to no drug controls; harvest five days after compound addition; read-out: HepAD38 EC50
# Experimental: Methods: HepAD38 cells are maintained as previously reported (Ladner et al, Antimicrob. Agents Chemother. 1997, […], 1715). Briefly, cells are passaged upon attaining confluency in DMEM/F12 media in the presence of 10% FBS, Penn/Strep, 250 μg/mL G418, and 1 μg/ml tetracycline. Novel compounds are screened by first washing cells three times with PBS to remove tetracycline, and plating in 96 well plates at 35,000 cells/well. Compounds dissolved in DMSO are then diluted 1:200 into wells containing cells. Five days after compound addition, material is harvested for analysis. For an extended 8 day analysis, cells are plated and treated as described above, but media and compound are refreshed on d2 and d5 post initial treatment.
# On harvest day, virion DNA is obtained by lysing with Sidestep Lysis and Stabilization Buffer and then quantified via quantitative real time PCR. Commercially available ELISA kits are used to quantitate the viral proteins HBsAg (Alpco) or HbeAg (US Biological) by following the manufacturer's recommended protocol after diluting samples to match the linear range of their respective assays. Irrespective of readout, compound concentrations that reduce viral product accumulation in the cell lysates or supernatants by 50% relative to no drug controls (EC50) are reported; EC50 ranges are as follows: A<0.1 μM; B 0.1-0.4 μM; C>0.4 μM.
row,SMILES,EC50 [nM]
1,Cc1ccc(S(=O)(=O)N2CCN([C@H]3CC4=C(c5ccn(C(F)F)n5)[C@H](c5ccc(F)cc5Cl)N=C(c5nccs5)N4C3)CC2)cc1 [Example 44],> 400
2,Fc1ccc([C@@H]2N=C(c3nccs3)N3C[C@@H](N4CCNCC4)CC3=C2c2ccn(C(F)F)n2)c(Cl)c1 [Example 45],> 400
3,COC(=O)c1ccc(NC(=O)N2CCN([C@H]3CC4=C(c5ccn(C(F)F)n5)[C@H](c5ccc(F)cc5Cl)N=C(c5nccs5)N4C3)CC2)cc1 [Example 46],> 400
4,O=C(O)c1ccc(NC(=O)N2CCN([C@H]3CC4=C(c5ccn(C(F)F)n5)[C@H](c5ccc(F)cc5Cl)N=C(c5nccs5)N4C3)CC2)cc1 [Example 47],> 400
5,O=C1N(CC#Cc2ccccc2)CCN1[C@H]1CC2=C(c3ccn(C(F)F)n3)[C@H](c3ccc(F)cc3Cl)N=C(c3nccs3)N2C1 [Example 48],> 400
6,O=C(Nc1ccccc1)N1CCN([C@H]2CC3=C(c4ccn(C(F)F)n4)[C@H](c4ccc(F)cc4Cl)N=C(c4nccs4)N3C2)CC1 [Example 49],> 400
7,C=CS(=O)(=O)N[C@H]1CC2=C(c3ccn(C(F)F)n3)[C@H](c3ccc(F)cc3Cl)N=C(c3nccs3)N2C1 [Example 50],100 to 400
8,C=CS(=O)(=O)N([C@H]1CC2=C(c3ccn(C(F)F)n3)[C@H](c3ccc(F)cc3Cl)N=C(c3nccs3)N2C1)S(=O)(=O)C=C [Example 51],> 400
9,CNCCS(=O)(=O)N[C@H]1CC2=C(c3ccn(C(F)F)n3)[C@H](c3ccc(F)cc3Cl)N=C(c3nccs3)N2C1 [Example 52],< 100
10,CN(C)CCS(=O)(=O)N[C@H]1CC2=C(c3ccn(C(F)F)n3)[C@H](c3ccc(F)cc3Cl)N=C(c3nccs3)N2C1 [Example 53],< 100
11,O=S(=O)(CCN1CCCC1)N[C@H]1CC2=C(c3ccn(C(F)F)n3)[C@H](c3ccc(F)cc3Cl)N=C(c3nccs3)N2C1 [Example 54],100 to 400
12,O=S(=O)(CCN1CCCCC1)N[C@H]1CC2=C(c3ccn(C(F)F)n3)[C@H](c3ccc(F)cc3Cl)N=C(c3nccs3)N2C1 [Example 55],100 to 400
13,O=S(=O)(CCN1CCOCC1)N[C@H]1CC2=C(c3ccn(C(F)F)n3)[C@H](c3ccc(F)cc3Cl)N=C(c3nccs3)N2C1 [Example 56],100 to 400
14,O=S(=O)(CCN1CCC(O)CC1)N[C@H]1CC2=C(c3ccn(C(F)F)n3)[C@H](c3ccc(F)cc3Cl)N=C(c3nccs3)N2C1 [Example 57],< 100
15,CCOC(=O)C1CCN(CCS(=O)(=O)N[C@H]2CC3=C(c4ccn(C(F)F)n4)[C@H](c4ccc(F)cc4Cl)N=C(c4nccs4)N3C2)CC1 [Example 58],100 to 400
16,O=C(O)C1CCN(CCS(=O)(=O)N[C@H]2CC3=C(c4ccn(C(F)F)n4)[C@H](c4ccc(F)cc4Cl)N=C(c4nccs4)N3C2)CC1 [Example 59],100 to 400
17,COC(=O)C1CCCN1CCS(=O)(=O)N[C@H]1CC2=C(c3ccn(C(F)F)n3)[C@H](c3ccc(F)cc3Cl)N=C(c3nccs3)N2C1 (stereo partly drawn) [Example 60],> 400
18,COC(=O)CC1CCN(CCS(=O)(=O)N[C@H]2CC3=C(c4ccn(C(F)F)n4)[C@H](c4ccc(F)cc4Cl)N=C(c4nccs4)N3C2)CC1 [Example 61],< 100
19,COC(=O)CC1CCN(C(=O)CC2CCN(CCS(=O)(=O)N[C@H]3CC4=C(c5ccn(C(F)F)n5)[C@H](c5ccc(F)cc5Cl)N=C(c5nccs5)N4C3)CC2)CC1 [Example 62],< 100
20,O=C(O)CC1CCN(CCS(=O)(=O)N[C@H]2CC3=C(c4ccn(C(F)F)n4)[C@H](c4ccc(F)cc4Cl)N=C(c4nccs4)N3C2)CC1 [Example 63],> 400
21,O=C(O)CC1CCN(C(=O)CC2CCN(CCS(=O)(=O)N[C@H]3CC4=C(c5ccn(C(F)F)n5)[C@H](c5ccc(F)cc5Cl)N=C(c5nccs5)N4C3)CC2)CC1 [Example 64],> 400
22,O=C(O)C1CCCN1CCS(=O)(=O)N[C@H]1CC2=C(c3ccn(C(F)F)n3)[C@H](c3ccc(F)cc3Cl)N=C(c3nccs3)N2C1 (stereo partly drawn) [Example 65],> 400
23,COC(=O)C1CCCN(CCS(=O)(=O)N[C@H]2CC3=C(c4ccn(C(F)F)n4)[C@H](c4ccc(F)cc4Cl)N=C(c4nccs4)N3C2)C1 (stereo partly drawn) [Example 66],> 400
24,COC(=O)C1CCCN(C(=O)C2CCCN(CCS(=O)(=O)N[C@H]3CC4=C(c5ccn(C(F)F)n5)[C@H](c5ccc(F)cc5Cl)N=C(c5nccs5)N4C3)C2)C1 (stereo partly drawn) [Example 67],> 400
25,O=C(O)C1CCCN(CCS(=O)(=O)N[C@H]2CC3=C(c4ccn(C(F)F)n4)[C@H](c4ccc(F)cc4Cl)N=C(c4nccs4)N3C2)C1 (stereo partly drawn) [Example 68],> 400
26,O=C(O)C1CCCN(C(=O)C2CCCN(CCS(=O)(=O)N[C@H]3CC4=C(c5ccn(C(F)F)n5)[C@H](c5ccc(F)cc5Cl)N=C(c5nccs5)N4C3)C2)C1 (stereo partly drawn) [Example 69],> 400
27,CC(C)CCS(=O)(=O)N[C@H]1CC2=C(c3ccn(C(F)F)n3)[C@H](c3ccc(F)cc3Cl)N=C(c3nccs3)N2C1 [Example 71],100 to 400

row,SMILES,EC50 [nM]
1,CCNS(=O)(=O)N[C@H]1CC2=C(c3ccn(C(F)F)n3)[C@H](c3ccc(F)cc3Cl)N=C(c3nccs3)N2C1 [Example 76],< 100
2,CCCNS(=O)(=O)N[C@H]1CC2=C(c3ccn(C(F)F)n3)[C@H](c3ccc(F)cc3Cl)N=C(c3nccs3)N2C1 [Example 77],< 100
3,O=S(=O)(Nc1ccccc1)N[C@H]1CC2=C(c3ccn(C(F)F)n3)[C@H](c3ccc(F)cc3Cl)N=C(c3nccs3)N2C1 [Example 82],100 to 400
4,O=S(=O)(Nc1ccncc1)N[C@H]1CC2=C(c3ccn(C(F)F)n3)[C@H](c3ccc(F)cc3Cl)N=C(c3nccs3)N2C1 [Example 83],100 to 400
5,CCOC(=O)C1CCN(S(=O)(=O)N[C@H]2CC3=C(c4ccn(C(F)F)n4)[C@H](c4ccc(F)cc4Cl)N=C(c4nccs4)N3C2)CC1 [Example 87],< 100
6,O=C(O)C1CCN(S(=O)(=O)N[C@H]2CC3=C(c4ccn(C(F)F)n4)[C@H](c4ccc(F)cc4Cl)N=C(c4nccs4)N3C2)CC1 [Example 90],< 100
7,O=S(=O)(N[C@H]1CC2=C(c3ccn(C(F)F)n3)[C@H](c3ccc(F)cc3Cl)N=C(c3nccs3)N2C1)N1C[C@H](O)[C@@H](O)C1 [Example 101],< 100
8,O=S(=O)(N[C@H]1CC2=C(c3ccn(C(F)F)n3)[C@H](c3ccc(F)cc3Cl)N=C(c3nccs3)N2C1)N1C[C@@H](O)[C@H](O)C1 [Example 102],< 100
9,O=S(=O)(N[C@H]1CC2=C(c3ccn(C(F)F)n3)[C@H](c3ccc(F)cc3Cl)N=C(c3nccs3)N2C1)N1C[C@@H](O)[C@@H](O)C1 [Example 103],< 100
10,O=S(=O)(N[C@H]1CC2=C(c3ccn(C(F)F)n3)[C@H](c3ccc(F)cc3Cl)N=C(c3nccs3)N2C1)[C@H]1CC[C@](O)(c2ccccn2)CC1 [Example 104],< 100
11,O=S(=O)(N[C@H]1CC2=C(c3ccn(C(F)F)n3)[C@H](c3ccc(F)cc3Cl)N=C(c3nccs3)N2C1)[C@H]1CC[C@](O)(c2cccnc2)CC1 [Example 105],< 100
12,COC[C@@]1(O)CC2=C(c3ccn(C(F)F)n3)[C@H](c3ccc(F)cc3Cl)N=C(c3nccs3)N2C1 [Example 106],> 400
13,COC[C@]1(O)CC2=C(c3ccn(C(F)F)n3)[C@H](c3ccc(F)cc3Cl)N=C(c3nccs3)N2C1 [Example 107],> 400
14,C=CCOC[C@]1(O)CC2=C(c3ccn(C(F)F)n3)[C@H](c3ccc(F)cc3Cl)N=C(c3nccs3)N2C1 [Example 108],100 to 400
15,OCCOC[C@]1(O)CC2=C(c3ccn(C(F)F)n3)[C@H](c3ccc(F)cc3Cl)N=C(c3nccs3)N2C1 [Example 110],100 to 400
16,OCCOC[C@@]1(O)CC2=C(c3ccn(C(F)F)n3)[C@H](c3ccc(F)cc3Cl)N=C(c3nccs3)N2C1 [Example 111],> 400
17,COCCOC[C@@]1(O)CC2=C(c3ccn(C(F)F)n3)[C@H](c3ccc(F)cc3Cl)N=C(c3nccs3)N2C1 [Example 112],> 400
18,COCCOC[C@]1(O)CC2=C(c3ccn(C(F)F)n3)[C@H](c3ccc(F)cc3Cl)N=C(c3nccs3)N2C1 [Example 113],> 400
19,C#CCNC[C@@]1(O)CC2=C(c3ccn(C(F)F)n3)[C@H](c3ccc(F)cc3Cl)N=C(c3nccs3)N2C1 [Example 114],> 400
20,C#CCNC[C@]1(O)CC2=C(c3ccn(C(F)F)n3)[C@H](c3ccc(F)cc3Cl)N=C(c3nccs3)N2C1 [Example 115],> 400
21,C=CCNC[C@@]1(O)CC2=C(c3ccn(C(F)F)n3)[C@H](c3ccc(F)cc3Cl)N=C(c3nccs3)N2C1 [Example 116],> 400
22,C=CCNC[C@]1(O)CC2=C(c3ccn(C(F)F)n3)[C@H](c3ccc(F)cc3Cl)N=C(c3nccs3)N2C1 [Example 117],> 400
23,O[C@]1(CNCc2ccccc2)CC2=C(c3ccn(C(F)F)n3)[C@H](c3ccc(F)cc3Cl)N=C(c3nccs3)N2C1 [Example 118],> 400
24,O[C@@]1(CNCc2ccccc2)CC2=C(c3ccn(C(F)F)n3)[C@H](c3ccc(F)cc3Cl)N=C(c3nccs3)N2C1 [Example 119],> 400
25,O[C@]1(Cn2cccn2)CC2=C(c3ccn(C(F)F)n3)[C@H](c3ccc(F)cc3Cl)N=C(c3nccs3)N2C1 [Example 120],> 400
26,O[C@@]1(Cn2cccn2)CC2=C(c3ccn(C(F)F)n3)[C@H](c3ccc(F)cc3Cl)N=C(c3nccs3)N2C1 [Example 121],> 400
27,ONC[C@@]1(O)CC2=C(c3ccn(C(F)F)n3)[C@H](c3ccc(F)cc3Cl)N=C(c3nccs3)N2C1 [Example 122],> 400
